Numbered stars: 1 amine (or outer) side, 2 acyl side, 3 side chain; on linkers, the order of the positions; unused ones are H or OH. Bridge positions count the residues as written; N and C are the ends. Peptide text beside a SMILES is read from it. I, II: the chains in the order shown. X1 = O=C(c1ccc(N=Nc2ccc(C(=O)[*:2])cc2)cc1)[*:1]
Legend:
[1] = not given; remark: listed apart in the source
[2] = Thermal isomerization in the dark and photostationary state, followed by UV–vis spectroscopy; type: physicochemical
Protocol: The thermal stability of the ELP–azobenzene conjugates was also investigated by using UV–vis spectroscopy. After measurements under “UV–vis–UV” conditions, each peptide solution was incubated in the dark, and spectral changes were monitored over time (Figure ). […] These findings indicate that the photoswitching behavior of this peptide was more readily controllable than that of the other analogues.
Additionally, the isomerization of Azb-2(K-F2) to a cis-enriched state was induced by irradiation with UV-A light (365 nm), which is a commercially available light source (Figure S4). […] On the other hand, when an LED light with a higher irradiance than that used for spectrum measurements was used as the light source, Azb-2(K-F2) reached a photostationary state in approximately 5 min (Figure S4B). Overall, based on the experimental results, Azb-2(K-F2) appears to be a promising easy-to-handle peptide with both temperature and photoresponsiveness.
The synthesized ELP–azobenzene conjugates were dissolved in PBS buffer (137 mM NaCl, 2.68 mM KCl, 10 mM Na2HPO4, and 2 mM KH2PO4, pH 7.4) to prepare 50 μM solutions. The time-dependent UV–vis spectra of each conjugate were recorded using a JASCO V-660 spectral photometer (JASCO Co., Tokyo) in a quartz cell (optical path length: 10 mm, volume: 400 μL). […] Initially, the absorption spectra of the dark-adapted solution of the ELP–azobenzene conjugate were measured to determine the irradiation wavelength corresponding to its π–π* band. Subsequently, the ELP–azobenzene conjugate solution was irradiated with light corresponding to the π–π* band for 60 min and the absorption spectra were recorded every 10 min. Next, the peptide solution was irradiated with visible light corresponding to the n–π* band for 60 min and the absorption spectra were recorded every 10 min. The peptide solution was then irradiated again with UV light for 60 min and the absorption spectra were recorded every 10 min. Finally, the peptide solution was incubated in the dark conditions and the absorption spectra were recorded every 1 h. […]

[3] = Optical / fluorescence microscopy of coacervates and Rhodamine B-loaded aggregates; type: physicochemical
Protocol: To investigate the morphological properties of the ELP–azobenzene conjugates, a PBS solution of Azb-2(K-F2) was observed by using optical microscopy at different temperatures under light-protected conditions. The Azb-2(K-F2) solution was almost homogeneous at 25 °C (Figure A). However, spherical coacervates of the peptide emerged at 35 °C and then rapidly matured into larger particles with diameters of several micrometers by increasing the temperature to 37 °C (Figure B,C). These particles stably exist under dark conditions (Figure D).
Azb-2(K-F2) was further studied to determine whether the chemical release from the peptide aggregates could be controlled by light irradiation. Azb-2(K-F2) and Rhodamine B (a red fluorescent dye) were heated in PBS to form coacervates, and a stable pellet of the aggregate was obtained by centrifugation. This pellet was composed of Azb-2(K-F2) coacervates containing rhodamine B with diameters of several micrometers, as shown in Figure . The structure of the obtained sample was observed over time by using optical and fluorescence microscopy under irradiation with monochromatic light at a wavelength of 365 nm (Figure ). Before light irradiation, the peptide aggregate containing Rhodamine B was observed as a red-colored amorphous structure with a size of approximately 600–700 μm. When irradiated with UV-A light, spherical particles (several micrometers in diameter) leaked from the surface of the aggregates and the red dye diffused accordingly. This dissociation process was considered to be the reverse of the stepwise phase separation in which ELP formed submicron-ordered aggregates and then matured to larger aggregates with diameters of several micrometers. […] In contrast, the peptide aggregate containing Rhodamine B was stable at 37 °C in the absence of UV-A light (Figure S12).
The morphology of the coacervates of the ELP–azobenzene conjugate Azb-2(K-F2) was observed by optical microscopy. The light field observation was performed using a Leica DM IL LED (Leica Microsystems CMS, Wetzlar, Germany) equipped with HI PLAN 40× (Leica Microsystems CMS), HC PLAN 10× (Leica Microsystems CMS), and a Leica EL6000 external light source (Leica Microsystems CMS). Azb-2(K-F2) was dissolved in PBS buffer at a concentration of 3 mg/mL. Sample imaging was performed at 25, 35, and 37 °C by using a Thermo Plate TP-CHSQM (Tokai Hit Co., Ltd., Shizuoka, Japan). […]
A time-course observation of Azb-2(K-F2) aggregates in the presence of a fluorescent dye was also performed. To the Azb-2(K-F2) solution (in phosphate buffer, pH 7.4, 3 mg/mL) was added Rhodamine B at a final concentration of 50 μM. The resulting solution was incubated at 37 °C for 4 h. Then, the solution was centrifuged for 20 s (6200 rpm) to obtain an aggregate of the peptide as a red pellet. The obtained peptide aggregate was washed with PBS buffer (37 °C, 50 μL, three times) and was used to make a prepared slide. Time-dependent observation of the prepared sample was carried out at 37 °C under irradiation with 365 nm monochromatic light.

CC(C)[C@H](NC(=O)CNC(=O)[C@@H]1CCCN1C(=O)[C@H](Cc1ccccc1)NC(=O)CNC(=O)[C@@H](NC(=O)CNC(=O)[C@@H]1CCCN1C(=O)[C@H](Cc1ccccc1)NC(=O)[C@H](CCCCN)NC(=O)c1ccc(N=Nc2ccc(C(=O)N[C@@H](CCCCN)C(=O)N[C@@H](Cc3ccccc3)C(=O)N3CCC[C@H]3C(=O)NCC(=O)N[C@H](C(=O)NCC(=O)N[C@@H](Cc3ccccc3)C(=O)N3CCC[C@H]3C(=O)NCC(=O)N[C@H](C(=O)NCC(=O)O)C(C)C)C(C)C)cc2)cc1)C(C)C)C(=O)NCC(=O)O [Azb-2(K-F2)] (I: KFPGVGFPGVG-OH / II: KFPGVGFPGVG-OH; linker I:N-II:N via X1)
peak wavelength π–π*: 330 nm | peak wavelength n–π* [1]: 430 nm | thermal stability of the cis-enriched state, 12 h ([2]; 37 °C for 12 h, light-protected, 50 μM in PBS, UV–vis spectra): remained in a cis-enriched state | time to reach the photostationary state with LED light ([2]; UV-A 365 nm LED of higher irradiance than for the spectrum measurements): approximately 5 min | thermal stability of the cis-enriched state, 3 days ([2]; dark, after 3 days, UV–vis spectra (Figure S3)): retained its cis-isomer-enriched state | aggregate containing Rhodamine B without UV-A light ([3]; 37 °C, absence of UV-A light (Figure S12)): stable | aggregate containing Rhodamine B under continued UV-A irradiation ([3]; optical and fluorescence microscopy, 37 °C, 365 nm monochromatic light, Rhodamine B 50 μM at loading): completely collapsed | coacervate particles after UV-A irradiation ([3]; optical microscopy, 3 mg/mL in PBS, 37 °C, UV-A 365 nm for 5 min): particles disappeared | coacervate particles after subsequent room light ([3]; optical microscopy, 3 mg/mL in PBS, 37 °C, room light 5 min after UV-A): spherical aggregates reappeared | temperature at which spherical coacervates emerged ([3]; optical microscopy, 3 mg/mL in PBS, light-protected): 35 °C

Reference: PMC12363518, “Azobenzene-Modified Temperature-Responsive Short Elastin-like Peptides for Photo-Controlled Phase Transition” (ACS Synthetic Biology, 2025)
